Reference: patent US20110044963A1, “Method of Testing a Patient for Hypertension and Related Method of Treatment and Test Kit” (priority 2009, published 2011)

Tests used:
[1] = tested on: volume expansion model rats (nephrectomy DOCA saline); assay: Volume expansion hypertension model (nephrectomy, DOCA, saline), urinary angiotensinogen excretion; format: in vivo, rat
Procedure: (§1) Tests were performed to determine whether nonpregnant rats of one of two models of human essential hypertension would create a problem with respect to the other model. More specifically, a volume expansion model included taking out one kidney, thereby accelerating the process of developing hypertension, plus the replacement of drinking water with saline and weekly administration of DOCA, a powerful mineralocorticoid in order to ensure that the salt present in the saline is retained in the rat. This was compared with a model used to induce vasoconstriction by infusing a powerful vasoconstrictor, angiotensin II. It was theorized that the use of an antagonist of MBG, resibufogenin (“RBG”) would ameliorate the hypertension in volume expanded animals and would have no effect on the rats infused with angiotensin II.
(§2) The test indicates the group of rats from a Sham (control) rat with measurements being taken initially and finally. It is noted that, in the NDS rats, which were subjected to nephrectomy and DOCA plus saline, there was no significant increase in the excretion of angiotensinogen. […] The RBG, as expected, also had no effect on the hypertension induced by angiotensin infusion.

[2] = tested on: rats infused with angiotensin II; assay: Vasoconstriction hypertension model (angiotensin II infusion), urinary angiotensinogen excretion and hypertension; format: in vivo, rat; settings: for angiotensinogen excretion (in words): angiotensin II treated rats, compared with Sham rats; for UAGT (Final) / UAGT (Initial): male rats, angiotensin infusion model; for UAGT (Final): final measurement, Sham 2.4 ± 0.5; for UAGT (Initial): initial measurement
Procedure: as §1, §2

| Molecule | increase in angiotensinogen (in words) ([1]; NDSR rats: nephrectomy, DOCA plus saline, treated with resibufogenin) | UAGT (Final) ([1]; male rats, nephrectomy DOCA saline model, final measurement, NDS without RBG 2.2 ± 0.3) [nmol/day] | effect on the hypertension induced by angiotensin infusion ([2]; angiotensin II infused rats) | angiotensinogen excretion (in words) [2] | UAGT (Final) [2] [nmol/day] | UAGT (Initial) [2] [nmol/day] |
| --- | --- | --- | --- | --- | --- | --- |
| C[C@]12CC[C@H](O)C[C@H]1CC[C@@H]1[C@@H]2CC[C@]2(C)[C@@H](c3ccc(=O)oc3)C[C@H]3O[C@]132 [RBG, resibufogenin] | no meaningful increase | 2.0 ± 0.2 | no effect | no effect | 7.8 ± 0.4 | 2.6 ± 0.2 |
| angiotensin II (DRVYIHPF; Angiotensin-2; UniProt P01019 25-32, looked up) [powerful vasoconstrictor, an octapeptide, infused to induce vasoconstriction] | – | – | – | very substantial increase | 7.1 ± 0.5 | 2.6 ± 0.2 |
